The numbers were not newly measured in patent US7060710B2, “Isoxazole pyrazoloindane derivatives as cognition enhancing GABAA α5 subtype ligands” (Merck Sharp & Dohme Ltd., priority 2001, dated 2006), which cites them from elsewhere.

The conditions of data set [1]: background statement.
The conditions of data set [2]: reported by McNamara and Skelton.

`COC(=O)c1cc2c(cn1)[nH]c1ccccc12` [β-CCM]: in data set [1], the proconvulsant activity result is “proconvulsant”. In addition, in data set [2], the “spatial learning in the Morris watermaze” value is on record as “enhanced spatial learning”.
